Reference: patent US20030068613A1, “Method for studying regeneration in biological material” (priority 2000, published 2003)

System: organotypic cortical co-cultures
Assay: Correlated activity (regeneration of functional connections) in organotypic cortical co-cultures on micro-electrode arrays
Assay type: cell-based, Wistar rats
Conditions: 50 nM in culture medium from 0 DIV, re-administered with each medium change up to 14 DIV; after 14 days in vitro; n=18; untreated control ca. 60% (n=28)
Method: Organotypic cortical co-cultures (350-425 μm thick from the neocortex) were prepared from three-day-old to seven-day-old Wistar rats of both sexes and were maintained in vitro using the roller tube technique; on this point see Gähwiler, Organotypic Monolayer Cultures of Nervous Tissue, J. NEUROSCIENCE METHODS, 1981, volume 4, pages 329-342. The co-cultures were allowed to grow for up to 35 days either on glass cover plates or on micro-electrode arrays in medium which contained 50% Eagle's basic medium, 25% Hanks-buffered saline solution, 25% horse serum, 33 mM D-glucose and 1 mM L-glutamine. The medium was replaced twice a week, and the co-culture explants were positioned relative to one another with varied orientations and varied distances (0 to 500 μm).
The explants cultured on micro-electrode arrays were recorded at different times for spontaneous electrical activity, at the earliest after 4 DIV (days in vitro) and at the latest 35 DIV in normal culture medium at a temperature of 35° C. Using a multi-channel recording system, the 60 micro-electrodes could be recorded simultaneously, as a result of which it was possible to test correlated activity in the co-cultures. […] The electrodes had impedances of 100 to 300 kΩ (at 1 kHz), a spacing of 500 μm and a diameter of 10 μ. The activity was recorded at 10 to 25 kHz per channel, stored, and analyzed offline in respect of latency. […]

C=CC[C@@H]1/C=C(\C)C[C@H](C)C[C@H](OC)[C@H]2O[C@@](O)(C(=O)C(=O)N3CCCC[C@H]3C(=O)O[C@H](/C(C)=C/[C@@H]3CC[C@@H](O)[C@H](OC)C3)[C@H](C)[C@@H](O)CC1=O)[C@H](C)C[C@@H]2OC [FK506]
correlated activity (share of explants showing correlation): ~90%
